Usually inhibition stands for how much of the control response was suppressed.

The structures appear in SMILES notation.

The test system of the first assay is IL-1β release from THP-1 cells. The assay can be described thus: IL-1β Release Assay (Alternate Method), THP-1 cells. The settings on record: Homo sapiens; at 0.3 μM; THP-1 cells; read-out: IL-1β % inhibition. In kind it is cell-based, human. The gist of the method:
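THP-1 cells differentiated 16 h with 100 ng/mL LPS plus 100 ng/mL IFN-γ, reprimed 2 h with 100 ng/mL LPS, pretreated 30 min with compound, then challenged 45 min with 250 uM BzATP (final). Supernatant IL-1β quantified by ELISA; percent inhibition from background-adjusted levels versus untreated cells.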
`CC12CC3CC(C)(C1)CC(CC(=O)Nc1ncnc4c1CCN(Cc1ccccc1)C4)(C3)C2` [Compound 341, N-(7-Benzyl-5,6,7,8-tetrahydro-pyrido[3,4-d]pyrimidin-4-yl)-2-(3,5-dimethyl-adamantan-1-yl)-acetamide]: the inhibition at 0.3 µM fell in the range of 25 to 50%.

Staying with this assay, now noted: at 0.3 μM; THP-1 cells.
Turning to `O=C(c1ccc(F)c(F)c1)N1CCc2c(ncnc2NC(=O)C23CC4CC(CC(C4)C2)C3)C1` [Compound 405], the IL-1β % inhibition entry is reported as “++ (compound exhibited 25-50% inhibition at 0.3 μM)”. Same read-out and setting: the entry for `COc1ccccc1CCC(=O)Nc1ncnc2c1CCN(Cc1ccccn1)C2` [Compound 134] is “+ (compound exhibited 0-25% inhibition at 0.3 μM)”; for `O=C(CC12CC3CC(CC(C3)C1)C2)Nc1ncnc2c1CCN(C(=O)c1ccc3ccccc3n1)C2` [Compound 303] it is “+++ (compound exhibited 50-75% inhibition at 0.3 μM)”; for `O=C(CC12CC3CC(CC(C3)C1)C2)Nc1ncnc2c1CCN(C(=O)c1cccc(F)c1)C2` [Compound 227] it is “+ (compound exhibited 0-25% inhibition at 0.3 μM)”. Consider `O=C(NCC1CCCCC1)c1ncnc2c1CCN(Cc1ccncc1)C2` [Compound 49], for which the IL-1β % inhibition result is on record as “+ (compound exhibited 0-25% inhibition at 0.3 μM)”.

Regarding `O=C(CC12CC3CC(CC(C3)C1)C2)Nc1ncnc2c1CCN(S(=O)(=O)c1ccc3c(c1)OCCO3)C2` [Compound 200], the IL-1β % inhibition result is listed as “+ (compound exhibited 0-25% inhibition at 0.3 μM)”. On the same count and under the same terms, the entry for `O=C(CC12CC3CC(CC(C3)C1)C2)Nc1ncnc2c1CCN(Cc1ccc(OC(F)(F)F)cc1)C2` [Compound 74] is “+ (compound exhibited 0-25% inhibition at 0.3 μM)”; for `Cc1cccc(CN2CCc3c(ncnc3NC(=O)CC34CC5CC(CC(C5)C3)C4)C2)c1` [Compound 38] it is “+ (compound exhibited 0-25% inhibition at 0.3 μM)”; for `O=C(CC12CC3CC(CC(C3)C1)C2)Nc1ncnc2c1CCN(S(=O)(=O)c1c(Cl)cccc1Cl)C2` [Compound 210] it is “+ (compound exhibited 0-25% inhibition at 0.3 μM)”.

With `O=C(CC12CC3CC(CC(C3)C1)C2)Nc1ncnc2c1CCN(Cc1cccc(Oc3ccccc3)c1)C2` [Compound 68], the IL-1β % inhibition result is listed as “+ (compound exhibited 0-25% inhibition at 0.3 μM)”. On to `CC12CC3CC(C)(C1)CC(CC(=O)Nc1ncnc4c1CCN(C(=O)c1c(F)cccc1Cl)C4)(C3)C2` [Compound 389], for which the IL-1β % inhibition result is on record as “++ (compound exhibited 25-50% inhibition at 0.3 μM)”. On the same count and under the same terms, the entry for `O=C(CC12CC3CC(CC(C3)C1)C2)Nc1ncnc2c1CCN(S(=O)(=O)c1cccc(Cl)c1)C2` [Compound 168] is “++++ (compound exhibited 75% or greater inhibition at 0.3 μM)”. The same measure, in the same setting: the entry for `CC(C)(C(=O)Nc1ncnc2c1CCN(S(=O)(=O)c1cccc(Cl)c1)C2)C12CC3CC(CC(C3)C1)C2` [Compound 354] is “+ (compound exhibited 0-25% inhibition at 0.3 μM)”; for `O=C(CC12CC3CC(CC(C3)C1)C2)Nc1ncnc2c1CCN(C(=O)COc1ccccc1)C2` [Compound 249] it is “+ (compound exhibited 0-25% inhibition at 0.3 μM)”; for `O=C(NCC1CCCCC1)c1ncnc2c1CCN(Cc1ccccn1)C2` [Compound 52] it is “+ (compound exhibited 0-25% inhibition at 0.3 μM)”. Still for that read-out and setting: the entry for `O=C(CC12CC3CC(CC(C3)C1)C2)Nc1ncnc2c1CCN(C(=O)c1ccccc1F)C2` [Compound 280] is “+++ (compound exhibited 50-75% inhibition at 0.3 μM)”; for `O=C(CC12CC3CC(CC(C3)C1)C2)Nc1ncnc2c1CCN(Cc1ccc(C(F)(F)F)c(F)c1)C2` [Compound 97] it is “++ (compound exhibited 25-50% inhibition at 0.3 μM)”.

As to `O=C(CC12CC3CC(CC(C3)C1)C2)Nc1ncnc2c1CCN(S(=O)(=O)Cc1ccc(Cl)cc1)C2` [Compound 189], the IL-1β % inhibition entry is recorded as “++++ (compound exhibited 75% or greater inhibition at 0.3 μM)”. Same read-out and setting: the entry for `CN(CCO)c1ccc(CN2CCc3c(ncnc3NC(=O)CC34CC5CC(CC(C5)C3)C4)C2)cc1` [Compound 89] is “+ (compound exhibited 0-25% inhibition at 0.3 μM)”. On the same count and under the same terms, the entry for `Cc1ccccc1CN1CCc2c(ncnc2NC(=O)C(C)(C)C23CC4CC(CC(C4)C2)C3)C1` [Compound 349] is “+ (compound exhibited 0-25% inhibition at 0.3 μM)”; for `O=C(CC12CC3CC(CC(C3)C1)C2)Nc1ncnc2c1CCN(Cc1ccnc3ccccc13)C2` [Compound 69] it is “+ (compound exhibited 0-25% inhibition at 0.3 μM)”.

In the case of `CC12CC3CC(C)(C1)CC(CC(=O)Nc1ncnc4c1CCN(C(=O)c1cc(F)ccc1F)C4)(C3)C2` [Compound 390], the IL-1β % inhibition entry was “+ (compound exhibited 0-25% inhibition at 0.3 μM)”.

Take `O=C(CC12CC3CC(CC(C3)C1)C2)Nc1ncnc2c1CCN(Cc1ccc3c(c1)OCO3)C2` [Compound 321]: the IL-1β % inhibition result is recorded as “++++ (compound exhibited 75% or greater inhibition at 0.3 μM)”. For the compound `O=C(CC12CC3CC(CC(C3)C1)C2)Nc1ncnc2c1CCN(Cc1ccc(OCCO)cc1)C2` [Compound 99], the IL-1β % inhibition result is recorded as “+ (compound exhibited 0-25% inhibition at 0.3 μM)”. On the same count and under the same terms, the entry for `CC(C)(C(=O)Nc1ncnc2c1CCN(C(=O)c1cccc(C(F)(F)F)c1)C2)C12CC3CC(CC(C3)C1)C2` [Compound 359] is “+ (compound exhibited 0-25% inhibition at 0.3 μM)”; for `O=C(CC12CC3CC(CC(C3)C1)C2)Nc1ncnc2c1CCN(Cc1ccc3c(c1)Cc1ccccc1-3)C2` [Compound 318] it is “+ (compound exhibited 0-25% inhibition at 0.3 μM)”; for `Cc1ccccc1C(=O)N1CCc2c(ncnc2NC(=O)CC23CC4CC(CC(C4)C2)C3)C1` [Compound 278] it is “+++ (compound exhibited 50-75% inhibition at 0.3 μM)”. On the same count and under the same terms, the entry for `O=C(CC12CC3CC(CC(C3)C1)C2)Nc1ncnc2c1CCN(Cc1ccc(-n3ccnc3)cc1)C2` [Compound 98] is “++ (compound exhibited 25-50% inhibition at 0.3 μM)”; for `COc1ccccc1C(=O)N1CCc2c(ncnc2NC(=O)CC23CC4CC(CC(C4)C2)C3)C1` [Compound 292] it is “+++ (compound exhibited 50-75% inhibition at 0.3 μM)”; for `O=C(CC12CC3CC(CC(C3)C1)C2)Nc1ncnc2c1CCN(Cc1ccc(Cl)s1)C2` [Compound 83] it is “++++ (compound exhibited 75% or greater inhibition at 0.3 μM)”.

For the compound `O=C(CC12CC3CC(CC(C3)C1)C2)Nc1ncnc2c1CCN(S(=O)(=O)c1ccccc1C(F)(F)F)C2` [Compound 195], the IL-1β % inhibition entry was “+ (compound exhibited 0-25% inhibition at 0.3 μM)”. Take `CC12CC3CC(C)(C1)CC(CC(=O)Nc1ncnc4c1CCN(C(=O)c1cccc(Cl)c1Cl)C4)(C3)C2` [Compound 391]: the IL-1β % inhibition result is reported as “+ (compound exhibited 0-25% inhibition at 0.3 μM)”. The same measure, in the same setting: the entry for `COc1ccc(CN2CCc3c(ncnc3NC(=O)CC34CC5CC(CC(C5)C3)C4)C2)cc1Cl` [Compound 324] is “+ (compound exhibited 0-25% inhibition at 0.3 μM)”. On the same count and under the same terms, the entry for `Cc1ccc(S(=O)(=O)N2CCc3c(ncnc3NC(=O)CC34CC5CC(CC(C5)C3)C4)C2)cc1` [Compound 144] is “+++ (compound exhibited 50-75% inhibition at 0.3 μM)”; for `CC12CC3CC(C)(C1)CC(CC(=O)Nc1ncnc4c1CCN(Cc1ccc5c(c1)OCCO5)C4)(C3)C2` [Compound 373] it is “++++ (compound exhibited 75% or greater inhibition at 0.3 μM)”.

The assay is the same for the next values; noted with them: at 0.3 μM; THP-1 cells, BzATP-stimulated.
Consider `COc1cc(F)c(CN2CCc3c(ncnc3NC(=O)C34CC5CC(CC(C5)C3)C4)C2)c(F)c1` [Compound 624], for which the IL-1β % inhibition result is listed as “+ (compound exhibited 0-25% inhibition at 0.3 μM)”. On the same count and under the same terms, the entry for `Cc1cccc(CN2CCc3c(ncnc3NC(=O)C34CC5CC(CC(C5)C3)C4)C2)c1` [Compound 606] is “+ (compound exhibited 0-25% inhibition at 0.3 μM)”. Still for that read-out and setting: the entry for `COc1ccc(C(=O)N2CCc3c(ncnc3NC(=O)C34CC5CC(CC(C5)C3)C4)C2)cc1F` [Compound 475] is “++ (compound exhibited 25-50% inhibition at 0.3 μM)”; for `O=C(c1cccnc1Oc1ccccc1)N1CCc2c(ncnc2NC(=O)C23CC4CC(CC(C4)C2)C3)C1` [Compound 446] it is “++ (compound exhibited 25-50% inhibition at 0.3 μM)”. Same read-out and setting: the entry for `O=C(c1cccc(C(F)(F)F)c1)N1CCc2c(ncnc2NC(=O)C23CC4CC(CC(C4)C2)C3)C1` [Compound 406] is “++ (compound exhibited 25-50% inhibition at 0.3 μM)”. Take `COc1ccc(CN2CCc3c(ncnc3NC(=O)C34CC5CC(CC(C5)C3)C4)C2)cc1OC` [Compound 566]: the IL-1β % inhibition result is reported as “+ (compound exhibited 0-25% inhibition at 0.3 μM)”.

For `Cc1cc(C)cc(S(=O)(=O)N2CCc3c(ncnc3NC(=O)C34CC5CC(CC(C5)C3)C4)C2)c1` [Compound 550], the IL-1β % inhibition entry is reported as “+ (compound exhibited 0-25% inhibition at 0.3 μM)”.

Regarding `O=C(Nc1ncnc2c1CCN(Cc1ccc(Cl)cc1)C2)C12CC3CC(CC(C3)C1)C2` [Compound 601], the IL-1β % inhibition result is reported as “+++ (compound exhibited 50-75% inhibition at 0.3 μM)”. Regarding `O=C(Nc1ncnc2c1CCN(Cc1ccc(Cl)nc1)C2)C12CC3CC(CC(C3)C1)C2` [Compound 634], the IL-1β % inhibition entry is reported as “+ (compound exhibited 0-25% inhibition at 0.3 μM)”. With `N#Cc1ccc(CN2CCc3c(ncnc3NC(=O)C34CC5CC(CC(C5)C3)C4)C2)cc1` [Compound 603], the IL-1β % inhibition entry is “+ (compound exhibited 0-25% inhibition at 0.3 μM)”. The same measure, in the same setting: the entry for `O=C(Nc1ncnc2c1CCN(S(=O)(=O)c1ccc(F)cc1F)C2)C12CC3CC(CC(C3)C1)C2` [Compound 543] is “++ (compound exhibited 25-50% inhibition at 0.3 μM)”; for `CS(=O)(=O)N1CCc2c(ncnc2NC(=O)C23CC4CC(CC(C4)C2)C3)C1` [Compound 480] it is “+ (compound exhibited 0-25% inhibition at 0.3 μM)”; for `COc1ccc(CN2CCc3c(ncnc3NC(=O)C34CC5CC(CC(C5)C3)C4)C2)cc1O` [Compound 593] it is “+ (compound exhibited 0-25% inhibition at 0.3 μM)”.
